Reference: article PMC3172082 (Nature, 2009)
Several values for one entry are separate records, joined by “and”; a condition that tells them apart may be missing. Identical values can stand only once.

Experiments:
[1] = tested on: human monocyte-derived macrophages; assay: Cytotoxicity to human monocyte-derived macrophages; assay type: cell-based; conditions: 7 days incubation; GL5 and HT1171 up to 75 μM
mycobacterial proteasome = mycobacterial proteasome (Mycobacterium bovis, UniProt A1KKF3); assay: cell-based; design: species or system Mycobacterium bovis var. BCG; conditions: for inhibition at 50 µM: read-out: inhibition of mycobacterial proteasome activity in intact BCG
Mtb Erdman = assay type: cell-based, Mycobacterium tuberculosis; conditions: non-replicating Mtb
Mtb 20SOG = assay type: biochemical, Mycobacterium tuberculosis; conditions: by partition ratios
BCG = assay type: cell-based, Mycobacterium bovis var. BCG
Mtb20SOG = Mtb20SOG (Mycobacterium tuberculosis, UniProt P9WHT9); assay: High throughput screen, Mtb20SOG hydrolysis of Suc-LLVY-AMC; assay type: biochemical; conditions: 33 μM test compounds
Mtb20SOG, sequence (P9WHT9 whole entry, looked up): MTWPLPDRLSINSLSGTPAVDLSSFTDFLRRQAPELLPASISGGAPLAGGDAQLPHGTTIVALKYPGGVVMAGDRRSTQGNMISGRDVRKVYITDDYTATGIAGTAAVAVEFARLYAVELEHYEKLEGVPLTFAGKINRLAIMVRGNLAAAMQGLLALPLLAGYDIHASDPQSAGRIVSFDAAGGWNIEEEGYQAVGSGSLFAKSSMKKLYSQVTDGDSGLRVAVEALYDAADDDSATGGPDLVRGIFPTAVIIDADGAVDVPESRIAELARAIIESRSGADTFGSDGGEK

mycobacterial proteasome, sequence (A1KKF3 whole entry, looked up): as the sequence (P9WHT9 whole entry, looked up) above

Compound | toxicity to human macrophages [1] | reduction of proteasome activity in intact BCG (mycobacterial proteasome) | inhibition at 50 µM (mycobacterial proteasome) [%] | Mtb killed over 4 days in synergy with nitric oxide (Mtb Erdman; dose-dependent, 50 μM DETA-NO) | fold more effective against Mtb proteasomes than human proteasomes (Mtb 20SOG) [fold] | killing of BCG (in words) (BCG) | mycobactericidal activity compared with GL5 and HT1171 (in words) (Mtb Erdman; DETA-NO, 4 days) | activity in screen against Mtb20SOG (Mtb20SOG)
CSc1sc(C)cc1-c1nsc(=O)o1 [GL5, 5-(5-methyl-2-(methylthio)thiophen-3-yl)-1,3,4-oxathiazol-2-one] | no apparent toxicity | > 80% and ~ 50% | ~90 | 1.5-2.5 log10 | > 1000 | killed BCG alone and in synergy with sub-bacteriostatic fluxes of nitric oxide |  | 
CC(C)C[C@H](NC(=O)[C@H](Cc1ccccc1)NC(=O)c1cnccn1)B(O)O [bortezomib, reference compound] | toxic |  | 52 |  |  |  | less mycobactericidal | 
Cc1cc(-c2nsc(=O)o2)c(S(C)(=O)=O)s1 [GL6, 5-(5-methyl-2-(methylsulfonyl)thiophen-3-yl)-1,3,4-oxathiazol-2-one] |  |  |  |  |  |  |  | inactive
